Measured values reported in ChEMBL document CHEMBL1201862, “PubChem BioAssay data set” (2004).
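Dose response: 5 concentrations. Exposure: 48 h. Format: 96-well plates. Endpoint: linear interpolation; highest concentration if not reached. Here, GI50 denotes the concentration required for 50% inhibition of growth.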 Calls of active or inactive are those of the source. Rule as the data show it: active = GI50 up to about 1.1 µM and inactive = higher.

How the values were obtained:
Experiment in all cases: growth of human tumour cells (NCI), 48 h
KM-20L2 = test system: KM-20L2
A549 = test system: A549
ACHN = test system: ACHN
A498 = test system: A498
K562 = test system: K562
OVCAR-8 = test system: OVCAR-8
EKVX = test system: EKVX
PC-3 = test system: PC-3
DU-145 = test system: DU-145
UO-31 = test system: UO-31
Hs-578T = test system: Hs-578T
IGROV-1 = test system: IGROV-1
RXF 393 = test system: RXF 393
M19-MEL = test system: M19-MEL
Malme-3M = test system: Malme-3M
HL-60 = test system: HL-60
HOP-62 = test system: HOP-62
SK-MEL-5 = test system: SK-MEL-5
RXF 631 = test system: RXF 631
BT-549 = test system: BT-549
OVCAR-5 = test system: OVCAR-5
HCT-116 = test system: HCT-116
TK-10 = test system: TK-10
CAKI-1 = test system: CAKI-1
LOX IMVI = test system: LOX IMVI
KM12 = test system: KM12
DLD-1 = test system: DLD-1
XF498 = test system: XF498
SK-MEL-2 = test system: SK-MEL-2
MDA-MB-231 = test system: MDA-MB-231
SN12C = test system: SN12C
MDA-N = test system: MDA-N
SNB-19 = test system: SNB-19
HOP-92 = test system: HOP-92
SW-620 = test system: SW-620
NCI-H23 = test system: NCI-H23
M14 = test system: M14
UACC-62 = test system: UACC-62
SR = test system: SR
NCI-H226 = test system: NCI-H226
SF-295 = test system: SF-295
U-251 = test system: U-251
SNB-75 = test system: SNB-75
MDA-MB-435 = test system: MDA-MB-435
SK-MEL-28 = test system: SK-MEL-28
NCI/ADR-RES = test system: NCI/ADR-RES
HCT-15 = test system: HCT-15
DMS-273 = test system: DMS-273
HT-29 = test system: HT-29
LXFL 529 = test system: LXFL 529
MOLT-4 = test system: MOLT-4
SF-268 = test system: SF-268
SF-539 = test system: SF-539
786-0 = test system: 786-0
UACC-257 = test system: UACC-257
DMS-114 = test system: DMS-114
SK-OV-3 = test system: SK-OV-3
NCI-H522 = test system: NCI-H522
RPMI-8226 = test system: RPMI-8226
OVCAR-4 = test system: OVCAR-4
SNB-78 = test system: SNB-78
COLO 205 = test system: COLO 205
HOP-18 = test system: HOP-18
NCI-H460 = test system: NCI-H460
OVCAR-3 = test system: OVCAR-3
HCC 2998 = test system: HCC 2998
CCRF-CEM = test system: CCRF-CEM
MCF7 = test system: MCF7
T47D = test system: T47D

Measured: GI50

CCC1(O)C(=O)OCc2c1cc1n(c2=O)Cc2cc3c(N)cccc3nc2-1 (stereo not given) [RS-9-Aminocamptothecin]
0.267 µM: HCT-15
active: KM-20L2 0.132 µM | A549 0.0354 µM | ACHN < 0.01 µM | A498 0.156 µM | K562 0.0309 µM | OVCAR-8 0.027 µM | PC-3 0.115 µM | DU-145 < 0.011 µM | UO-31 < 0.0109 µM | IGROV-1 0.327 µM | RXF 393 0.0447 µM | M19-MEL 0.0588 µM | Malme-3M 0.21 µM | HL-60 < 0.0128 µM | HOP-62 < 0.0119 µM | SK-MEL-5 0.0255 µM | RXF 631 0.0471 µM | BT-549 0.0668 µM | OVCAR-5 0.19 µM | HCT-116 0.0171 µM | CAKI-1 < 0.01 µM | LOX IMVI < 0.01 µM | KM12 0.24 µM | DLD-1 0.859 µM | XF498 0.145 µM | SK-MEL-2 0.288 µM | SN12C < 0.01 µM | MDA-N 0.182 µM | SNB-19 < 0.0138 µM | HOP-92 0.0349 µM | SW-620 0.0281 µM | NCI-H23 < 0.0109 µM | M14 0.0174 µM | UACC-62 < 0.01 µM | SR < 0.01 µM | NCI-H226 < 0.01 µM | SF-295 0.0102 µM | U-251 < 0.0115 µM | SNB-75 0.013 µM | MDA-MB-435 0.0607 µM | SK-MEL-28 0.188 µM | NCI/ADR-RES 0.0118 µM | DMS-273 < 0.01 µM | HT-29 0.118 µM | LXFL 529 0.341 µM | MOLT-4 < 0.01 µM | SF-268 < 0.01 µM | SF-539 < 0.014 µM | 786-0 0.0108 µM | UACC-257 0.121 µM | DMS-114 < 0.0104 µM | SK-OV-3 0.0264 µM | NCI-H522 0.0196 µM | RPMI-8226 0.0416 µM | OVCAR-4 0.345 µM | SNB-78 0.995 µM | COLO 205 0.741 µM | HOP-18 0.0424 µM | NCI-H460 < 0.0106 µM | OVCAR-3 0.277 µM | HCC 2998 0.177 µM | CCRF-CEM < 0.01 µM | MCF7 < 0.01 µM
inactive: EKVX 1.2 µM | Hs-578T 3.65 µM | TK-10 3.02 µM | MDA-MB-231 2.1 µM

Cc1c2ccncc2cc2c1sc1ccncc12
1.9 µM: HCT-15
active: A549 0.845 µM | ACHN 1.06 µM | HL-60 0.877 µM | SR 0.325 µM | NCI-H226 0.684 µM | MOLT-4 0.468 µM | RPMI-8226 0.993 µM | NCI-H460 0.485 µM | MCF7 0.41 µM
inactive: KM-20L2 5.5 µM | A498 4.31 µM | K562 4.14 µM | OVCAR-8 2.61 µM | EKVX 3.17 µM | PC-3 1.86 µM | DU-145 1.97 µM | UO-31 1.27 µM | Hs-578T 2.39 µM | IGROV-1 3.47 µM | RXF 393 5.24 µM | M19-MEL 3.94 µM | Malme-3M 4.16 µM | HOP-62 1.74 µM | SK-MEL-5 1.68 µM | RXF 631 2.25 µM | BT-549 2.49 µM | T47D 2.04 µM | OVCAR-5 3.18 µM | HCT-116 1.75 µM | TK-10 7.29 µM | CAKI-1 2.01 µM | LOX IMVI 1.57 µM | KM12 3.55 µM | DLD-1 4.18 µM | XF498 12.1 µM | SK-MEL-2 6.17 µM | MDA-MB-231 3.57 µM | SN12C 2 µM | MDA-N 2.67 µM | SNB-19 2.74 µM | HOP-92 8.22 µM | SW-620 1.45 µM | NCI-H23 2.51 µM | M14 4.53 µM | UACC-62 2.16 µM | SF-295 1.96 µM | U-251 2.22 µM | SNB-75 3.8 µM | SK-MEL-28 5.82 µM | DMS-273 2.09 µM | HT-29 2.73 µM | LXFL 529 6.68 µM | SF-268 3.66 µM | SF-539 4.56 µM | 786-0 2.06 µM | UACC-257 3.85 µM | DMS-114 6.21 µM | SK-OV-3 2.23 µM | NCI-H522 2.14 µM | OVCAR-4 5.71 µM | SNB-78 13 µM | COLO 205 3.24 µM | HOP-18 7.71 µM | OVCAR-3 6.56 µM | HCC 2998 5.52 µM | CCRF-CEM 1.21 µM
